Results from patent US5530141A, “2,4-diaryl-1,3-dithiolanes; 2,4-diaryl-1,3-dioxolanes; 2,4-diaryl-1,3-oxathiolanes; and 2,5-diaryl-1,3-oxathiolanes for the treatment of disorders mediated by platelet activating factor or products of 5-lipoxygenase” (Center for Innovative Technology, priority 1992, dated 1996).

Assays:
5-LO = molecular target: T1, 5-LO (Rattus norvegicus, UniProt P12527); experiment: 5-LO inhibition (Table 1); type: biochemical; settings: for inhibition at 3 µM: read-out: 5-LO, percent @ 3 μM
T1 sequence (P12527 1-673): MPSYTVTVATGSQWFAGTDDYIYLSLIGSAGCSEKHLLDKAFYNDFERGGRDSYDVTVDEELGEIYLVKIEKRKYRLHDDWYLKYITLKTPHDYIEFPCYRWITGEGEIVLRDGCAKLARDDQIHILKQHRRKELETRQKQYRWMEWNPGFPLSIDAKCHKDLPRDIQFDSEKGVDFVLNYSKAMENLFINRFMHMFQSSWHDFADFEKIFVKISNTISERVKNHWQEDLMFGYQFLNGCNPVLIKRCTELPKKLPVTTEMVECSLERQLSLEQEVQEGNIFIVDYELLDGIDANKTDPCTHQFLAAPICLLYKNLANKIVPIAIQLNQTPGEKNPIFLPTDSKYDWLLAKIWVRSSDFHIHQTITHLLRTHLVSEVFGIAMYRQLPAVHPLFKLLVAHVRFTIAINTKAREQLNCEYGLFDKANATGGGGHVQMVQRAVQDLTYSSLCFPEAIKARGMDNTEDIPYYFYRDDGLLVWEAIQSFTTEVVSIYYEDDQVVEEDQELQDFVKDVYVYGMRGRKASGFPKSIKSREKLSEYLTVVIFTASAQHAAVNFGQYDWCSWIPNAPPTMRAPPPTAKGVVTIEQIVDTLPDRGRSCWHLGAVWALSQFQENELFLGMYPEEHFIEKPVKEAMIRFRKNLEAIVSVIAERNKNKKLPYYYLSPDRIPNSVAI

[1] = molecular target: T2, specific receptors on human platelet membranes (PAF receptors) (Homo sapiens, UniProt P25105); experiment: [3H]PAF binding inhibition on human platelet membranes (Table 1, PAF); settings: [3H]PAF 0.3 nM, pH 7.0, 4 h, 0° C
T2 construct: Human platelet membranes were prepared from platelet concentrates obtained from the American Red Cross Blood Services; from tissue; host or cells: human platelets (concentrates from American Red Cross Blood Services, Dedham, Mass.), membrane fractions A and B
Description: Human platelet membranes were prepared from platelet concentrates obtained from the American Red Cross Blood Services (Dedham, Mass.). After several washes with platelet wash solution (150 mM NaCl, 10 mM Tris, and 2 mM EDTA, pH 7.5), the platelet pellets were resuspended in 5 mM MgCl2, 10 mM Tris, and 2 mM EDTA at pH 7.0. The cells were then quickly frozen with liquid nitrogen and thawed slowly at room temperature. The freezing and thawing procedure was repeated at least three times. For further fractionation of membrane fragments, the lysed membrane suspension was layered over the top of a discontinous sucrose density gradient of 0.25, 1.03, and 1.5M sucrose prepared in 10 mM MgCl2, 10 mM Tris and 2 mM EDTA, pH 7.0, and centrifuged at 63,500×g for 2 hr. The membrane fractions banding between 0.25 and 1.03M (membrane A) and between 1.03 and 1.5M (membrane B) were collected separately. The protein concentration of the membrane preparations was determined by Lowry's method with bovine serum albumin (BSA) as the standard. The membranes were then separated into smaller fractions (4 ml each) and stored at -80° C. and thawed before use.
b) [^3 H]PAF Binding inhibition:
The ability of [^3 H]PAF to bind to specific receptors on human platelet membranes was evaluated at optimal conditions at pH 7.0 and in the presence of 10 mM MgCl2. Membrane protein (100 ug) was added to a final 0.5 ml solution containing 0.15 pmol (0.3 nM concentration) of [^3 H]PAF and a known amount of unlabeled PAF or PAF receptor antagonist in 10 mM MgCl2, 10 mM Tris and 0.25% BSA at pH 7.0. After incubation for four hours at 0° C., the bound and unbound [^3 H]PAF were then separated through a Whatman GF/C glass fiber filter under vacuum. No degradation of filter bound [^3 H]PAF has been detected under this assay condition. The nonspecific binding was defined as the total binding in the presence of excess unlabeled PAF (1 mM) where no further displacement was found with higher concentrations of either unlabeled PAF or PAF analogs or PAF receptor antagonists. The specific binding was defined as the difference between total binding and nonspecific binding.
To determine the relative potency of tested compounds, [^3 H]PAF binding in the presence of inhibitors was normalized in terms of percent inhibition by assigning the total binding in the absence of inhibitors as 0% inhibition and the total binding in the presence of 1 mM unlabeled PAF as 100%. The percent inhibition by the compound can be calculated by the formula expressed below:
% inhibition=[(Total binding-total binding in the presence of
compound)/nonspecific binding]×100%
The IC50 was calculated as the concentration of the inhibitor necessary to obtain 50% inhibition of the specific [^3 H]PAF binding and was calculated by a nonlinear regression computer software program, GraphPad Inplot, version 3.0 (GraphPad software, San Diego, Calif.). Table 1 provides the IC50 values for a number of 2,4-diaryl-1,3-dithiolanes.

5-lipoxygenase = settings: cited from earlier work
PAF receptor = settings: cited from earlier work
RBL 5-LO = molecular target: T3, RBL 5-LO (Rattus norvegicus, UniProt P12527); experiment: RBL 5-LO inhibition (Table 2); type: biochemical; settings: unit inferred
T3 construct: cytosol 5-lipoxygenase of rat basophilic leukemia cells (RBL); endogenous in cells; host or cells: rat basophilic leukemia (RBL) cells
T3 sequence (P12527 1-673): T1 sequence (P12527 1-673)
From the text: A wide variety of biological assays have also been used to evaluate the ability of a compound to inhibit the enzyme 5-lipoxygenase. For example, a cytosol 5-lipoxygenase of rat basophilic leukemia cells (RBL) has been widely utilized in studies on leukotriene biosynthesis. Compounds that inhibit 5-lipoxygenase decrease the levels of leukotrienes.

T2 sequence (P25105 whole entry): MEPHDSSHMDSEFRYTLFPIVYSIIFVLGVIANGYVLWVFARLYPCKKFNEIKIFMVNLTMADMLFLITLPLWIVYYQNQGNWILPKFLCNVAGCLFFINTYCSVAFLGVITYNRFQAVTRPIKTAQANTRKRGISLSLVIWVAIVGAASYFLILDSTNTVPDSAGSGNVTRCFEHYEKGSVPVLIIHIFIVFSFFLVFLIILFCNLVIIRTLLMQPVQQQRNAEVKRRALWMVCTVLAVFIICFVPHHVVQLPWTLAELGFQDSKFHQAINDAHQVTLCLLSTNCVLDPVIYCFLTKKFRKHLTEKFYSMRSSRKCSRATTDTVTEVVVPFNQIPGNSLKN

COc1cc([C@H]2SC[C@H](c3cc(OC)c(OC)c(OC)c3)S2)cc(NC(=O)N(C)O)c1OCCSc1ccc(O)cc1 (relative stereo) [compound 9, Trans-2-[5-(N-hydroxy-N-methylureidyl)-4-{2-(4'-hydroxy-phenylthio)ethoxy}-3-methoxyphenyl]-4-(3,4,5-trimethoxyphenyl)-1,3-dithiolane]
IC50 (5-LO): 120 nM

C=CCOc1c(NC(=O)N(C)O)cc([C@H]2SC[C@H](c3cc(OC)c(OC)c(OC)c3)S2)cc1OC (relative stereo) [compound 5, Trans-2-[4-allyloxy-3-methoxy-5-(N-hydroxy-N-methylureidyl)phenyl]-4-(3,4,5-trimethoxyphenyl)-1,3-dithiolane]
IC50 (5-LO): 170 nM
IC50 [1]: 561 nM

COc1cc([C@H]2SC[C@H](c3cc(OC)c(OC)c(OC)c3)S2)cc(NC(=S)N(C)O)c1OC (relative stereo) [compound 2]
IC50 (5-LO): 280 nM

CCCCN(O)C(=O)Nc1cc(C2SCC(c3cc(OC)c(OC)c(OC)c3)S2)cc(OC)c1OC (stereo not drawn) [compound 3, Trans-2-[3,4-dimethoxy-5-(N-n-butyl-N-hydroxyureidyl)phenyl]-4-(3,4,5-trimethoxyphenyl)-1,3-dithiolane]
IC50 (5-LO): 240 nM
IC50 [1]: 67.8 nM

COc1cc([C@H]2SC[C@H](c3cc(OC)c(OC)c(OC)c3)S2)cc(NC(=O)N(O)c2ccc(Cl)cc2)c1OCCSc1ccc(O)cc1 (relative stereo) [compound 10, Trans-2-[5-(N-(p-chlorophenyl)-N-hydroxyureidyl)-4-{2-(4'-hydroxy-phenylthio)ethoxy}-3-methoxyphenyl]-4-(3,4,5-trimethoxyphenyl)-1,3-dithiolane]
inhibition at 3 µM (5-LO): 64%

COc1cc([C@H]2SC[C@H](c3cc(OC)c(OC)c(OC)c3)S2)cc(NC(=O)N(C)O)c1OC (relative stereo) [compound 1, Cis and Trans-2-[3,4-dimethoxy-5-(N-hydroxy-N-methylureidyl)phenyl]-4-(3,4,5-trimethoxyphenyl)-1,3-dithiolane]
IC50 (5-LO): 220 nM
IC50 [1]: 259 nM

COc1cc([C@H]2CC[C@H](c3cc(OC)c(OC)c(OC)c3)S2)cc(OC)c1OC (relative stereo) [L-653,150, trans-2,5-bis-(3,4,5-trimethoxyphenyl)tetrahydrothiophene]
effect on the enzyme 5-lipoxygenase (5-lipoxygenase): moderate inhibitor of 5-lipoxygenase
PAF receptor antagonist activity (PAF receptor): potent PAF antagonist

COc1cc([C@H]2SC[C@H](c3cc(OC)c(OC)c(OC)c3)S2)cc(NC(=O)N(O)C(C)(C)C)c1OC (relative stereo) [compound 4, Cis and Trans-2-[3,4-dimethoxy-5-(N-t-butyl-N-hydroxyureidyl)phenyl]-4-(3,4,5-trimethoxyphenyl)-1,3-dithiolane]
IC50 (5-LO): 320 nM
IC50 [1]: 798 nM

C=CCOc1c(NC(=O)N(O)C(C)(C)C)cc([C@H]2SC[C@H](c3cc(OC)c(OC)c(OC)c3)S2)cc1OC (relative stereo) [compound 6, Trans-2-[4-allyloxy-3-methoxy-5-(N-t-butyl-N-hydroxyureidyl)phenyl]-4-(3,4,5-trimethoxyphenyl)-1,3-dithiolane]
IC50 (5-LO): 570 nM
IC50 [1]: 543 nM

COc1cc([C@H]2SC[C@H](c3cc(OC)c(OC)c(OC)c3)S2)cc(NC(=O)N(C)O)c1OCCSc1ccc(C#N)cc1 (relative stereo) [compound 13, Trans-2-[5-(N-hydroxy-N-methylureidyl)-4-{2-(4'-cyano-phenylthio)ethoxy}-3-methoxyphenyl]-4-(3,4,5-trimethoxyphenyl)-1,3-dithiolane]
IC50 (5-LO): 92 nM

CCCOc1c(OC)cc([C@H]2CC[C@H](c3cc(OC)c(OC)c(OC)c3)O2)cc1S(C)(=O)=O (relative stereo) [L-659,989, trans-2-(3-methoxy-4-propoxyphenyl-5-methylsulfonyl)-5-(3,4,5-trimethoxyphenyl)tetrahydrofuran]
PAF receptor antagonist activity (PAF receptor): orally active, potent, competitive PAF receptor antagonist
equilibrium inhibition constant relative to trans-L-652,731 (PAF receptor; greater than that of trans-L-652,731): 10 times

CCCCCCCCCCCCCCCCCCNC(=O)OCC(COP(=O)([O-])OCC[n+]1ccsc1)OC (racemic) [CV-3988, rac-3-(N-n-octadecyl-carbamoyloxy-w-methoxypropyl-2-thiazolioethyl phosphate]
PAF receptor antagonist activity (PAF receptor): PAF receptor antagonist properties

C=CCOc1c(NC(=O)N(O)C(C)(C)C)cc([C@H]2O[C@@H](c3cc(OC)c(OC)c(OC)c3)CS2)cc1OC (relative stereo)
IC50 (RBL 5-LO): 250 nM

C=CCC1=C[C@@]2(OC)C(=CC1=O)O[C@H](c1ccc(OC)c(OC)c1)[C@H]2C [kadsurenone]
PAF receptor antagonist activity (PAF receptor): potent, specific and competitive inhibitor of PAF activity at the receptor level

COc1cc(C2SCC(c3cc(OC)c(OC)c(OC)c3)S2)cc(CN(O)C(C)=O)c1OC (stereo not drawn)
IC50 (RBL 5-LO): 850 nM

COc1cc(C2SCC(c3cc(OC)c(OC)c(OC)c3)S2)cc(CN(O)C(N)=O)c1OC (stereo not drawn)
IC50 (RBL 5-LO): 1440 nM

C=CCOc1c(NC(=O)N(O)C(C)(C)C)cc([C@@H]2O[C@@H](c3cc(OC)c(OC)c(OC)c3)CS2)cc1OC (relative stereo)
IC50 (RBL 5-LO): 410 nM

COc1cc([C@H]2CS[C@H](c3cc(OC)c(OCCSc4ccc(O)cc4)c(N(C)C)c3)S2)cc(OC)c1OC (relative stereo) [compound 14, Trans-2-[5-(N,N-dimethylamino)-4-{2-(4'-hydroxyphenylthio)ethoxy}-3-methoxyphenyl]-4-(3,4,5-trimethoxyphenyl)-1,3-dithiolane]
inhibition at 3 µM (5-LO): 25%

COc1cc([C@H]2SC[C@H](c3cc(OC)c(OC)c(OC)c3)S2)cc(N)c1OCCSc1ccc(O)cc1 (relative stereo) [compound 8, Trans-2-[5-amino-4-{2-(4'-hydroxyphenylthio)ethoxy}-3-methoxyphenyl]-4-(3,4,5-trimethoxyphenyl)-1,3-dithiolane]
inhibition at 3 µM (5-LO): 41%

COc1cc([C@H]2CS[C@H](c3cc(OC)c(OCCSc4ccc(O)cc4)c([N+](=O)[O-])c3)S2)cc(OC)c1OC (relative stereo) [compound 7, Trans-2-[4-{2-(4'-hydroxyphenylthio)ethoxy}-3-methoxy-5-nitrophenyl]-4-(3,4,5-trimethoxyphenyl)-1,3-dithiolane]
inhibition at 3 µM (5-LO): 57%
